Assay results as given in US20080153908A1, “Method of Treating Mucin Deficiency with an Active Pharmaceutical and Related Composition” (priority 2006, published 2008).

How the values were obtained:
rat colon cells = settings: isolated vascularly perfused rat colon; cited from earlier work
[1] = tested on: mucin content of tear film; test: Stimulation of mucin production: tear film mucin content in patients with mucin deficiency; type: in vivo, human; settings: 0.5 wt. % solution in artificial tear solution, four-times a day for four days; control receives artificial tear solution
Procedure: A 0.5 wt. % solution of sodium butyrate in artificial tear solution is administered to one of a […] that suffer from mucin deficiency. The patients receiving butyrate drops belong to the study group. The patients in the control group receive artificial tear solution. Both groups receive treatment four-times a day for four days. Following treatment, tear film samples are collected and tested to quantify mucin content.

colonic mucin production = settings: about 0.1 millimolar sodium butyrate; tissue harvested from colonic cancer patients; cited from earlier work

Compound	stimulation of mucin secretion of rat colon cells (rat colon cells)	concentration of mucin in tear film samples versus control group [1]	increase in colonic mucin production compared to a control group (colonic mucin production)
CC(=O)O [acetate]	can stimulate the mucin secretion		
CCC(=O)O [propionate]	can stimulate the mucin secretion		
CCCC(=O)[O-].[Na+] [sodium butyrate]		higher concentration of mucin	almost five fold increase
